Test: xn = mol fraction of the nth substance listed
Conditions: Liquid, x1 = 1

C1CCCCC1 [cyclohexane] + CCCCCCCCC
mass density [kg/m3]
Conditions | 298.15 K | 308.15 K | 318.15 K | 328.15 K
100 kPa | 773.8 | 764.4 | 754.8 | 745.4
101 kPa | 773.8 | 764.38 | 754.99 | 745.55
2130 kPa | 775.5 | 766.2 | 756.7 | 746.6
4150 kPa | 777.2 | 767.9 | 758.7 | 749.6
6180 kPa | 778.8 | 769.7 | 760.6 | 751.6
8210 kPa | 780.4 | 771.4 | 762.4 | 753.6
10230 kPa | 782 | 773.1 | 764.2 | 755.5
11250 kPa | 782.8 | 773.9 | 765.1 | 756.4
12260 kPa | 783.5 | 774.7 | 766 | 757.4
14290 kPa | 785 | 776.4 | 767.7 | 759.2
16310 kPa | 786.5 | 777.9 | 769.4 | 761
18340 kPa | 788 | 779.5 | 771.1 | 762.8
20370 kPa | 789.4 | 781 | 772.7 | 764.5
22390 kPa | 790.9 | 782.5 | 774.3 | 766.2
24420 kPa | 792.2 | 784 | 775.8 | 767.9
26450 kPa | 793.6 | 785.5 | 777.3 | 769.6
28470 kPa | 794.9 | 786.9 | 778.8 | 771.2
29490 kPa | 795.6 | 787.6 | 779.6 | 772
30500 kPa | 796.1 | 788.3 | 780.3 | 772.7
32530 kPa | 797.5 | 789.7 | 781.7 | 774.3
34550 kPa | 798.7 | 791 | 783.2 | 775.8
36580 kPa | 800 | 792.4 | 784.6 | 777.3
38600 kPa | 801.2 | 793.7 | 786 | 778.8
39620 kPa | 801.7 | 794.3 | 786.7 | 779.4
